Data from patent US20250296959A1, “B7-H3 TARGETING PEPTIDES AND CONSTRUCTS THEREOF” (Mariana Oncology Inc., priority 2024, published 2025).
pKd: −log10 of the molar value. Starred links: 1 amine or outer side, 2 acyl side, 3 side chain; linkers in the order of their positions; H or OH if unused. Positions of bridges follow the written chain, without caps; N, C: chain ends. Non-standard residues stand in square brackets, D forms with d. Residues, ends and D or L forms follow the SMILES beside them. ξ: configuration not given here. *: point of attachment. Ala(1-CH2CO2H-4-piperidyl) = N[C@@H](CC1CCN(CC(=O)O)CC1)C(=O)O; Ala(piperidin-4-yl) = O=C([C@H](CC1CCN([*:3])CC1)N[*:1])[*:2]; Phe(3-CH2NH2) = O=C([C@H](Cc1cccc(CN[*:3])c1)N[*:1])[*:2]; DOTA = O=C(O)CN1CCN(CC(=O)O)CCN(CC(=O)*)CCN(CC(=O)O)CC1; Phe(4-COOH) = N[C@@H](Cc1ccc(C(=O)O)cc1)C(=O)O; Trp(5-F) = N[C@@H](Cc1c[nH]c2ccc(F)cc12)C(=O)O; X1 = C[C@@H](c1ccccc1)[C@H](N[*:1])C(=O)[*:2]; 1Nal = N[C@@H](Cc1cccc2ccccc12)C(=O)O; Ala(4-THP) = N[C@@H](CC1CCOCC1)C(=O)O; αMeY = C[C@](N)(Cc1ccc(O)cc1)C(=O)O; Val(3-OH) = CC(C)(O)[C@H](N)C(=O)O; 4Pal = N[C@@H](Cc1ccncc1)C(=O)O; Tle = CC(C)(C)[C@H](N)C(=O)O; hLeu = CC(C)CC[C@H](N)C(=O)O; αMeP = C[C@@]1(C(=O)O)CCCN1; hSer = N[C@@H](CCO)C(=O)O; ξP = O=C(O)C1CCCN1

Biological target: T1, human 4lg B7-H3 (Homo sapiens, UniProt Q5ZPR3)
T1 sequence (Q5ZPR3 29-534): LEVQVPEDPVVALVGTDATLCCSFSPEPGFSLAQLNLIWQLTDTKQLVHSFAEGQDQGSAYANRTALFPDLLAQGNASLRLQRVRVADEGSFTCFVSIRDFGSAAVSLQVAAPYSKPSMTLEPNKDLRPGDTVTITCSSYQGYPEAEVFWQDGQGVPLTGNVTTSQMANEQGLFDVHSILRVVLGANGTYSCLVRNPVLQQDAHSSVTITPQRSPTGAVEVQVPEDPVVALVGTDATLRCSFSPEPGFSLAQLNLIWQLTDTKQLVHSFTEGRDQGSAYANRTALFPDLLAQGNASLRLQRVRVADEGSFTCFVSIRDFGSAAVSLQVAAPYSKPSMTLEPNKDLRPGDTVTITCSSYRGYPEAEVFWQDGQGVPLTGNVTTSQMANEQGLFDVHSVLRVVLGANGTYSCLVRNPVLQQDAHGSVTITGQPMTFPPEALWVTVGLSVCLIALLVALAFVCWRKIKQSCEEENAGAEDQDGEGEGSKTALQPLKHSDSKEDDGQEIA
Test: Affinity determination by surface plasmon resonance (SPR) to 4Ig B7-H3
Conditions: SPR KD—25° C., 4Ig B7-H3; 25° C. flow cell temperature

Row | SMILES | pKd
1 | CC(=O)N[C@@H](CCC(C)C)C(=O)N[C@@H](Cc1ccc(O)cc1)C(=O)N[C@H]1CSSC[C@@H](C(=O)N[C@@H](Cc2c[nH]c3ccccc23)C(=O)N[C@@H](Cc2ccccc2)C(=O)N[C@H](C(=O)N[C@H](CCCCNC(=O)CN2CCN(CC(=O)O)CCN(CC(=O)O)CCN(CC(=O)O)CC2)C(N)=O)[C@@H](C)O)NC(=O)[C@H](Cc2ccc(O)cc2)NC(=O)[C@H](C(C)C)NC(=O)[C@H](CC(=O)O)NC(=O)[C@H](Cc2ccc(O)cc2)NC(=O)[C@H](CCCCN)NC(=O)CNC(=O)[C@H](C(C)(C)O)NC1=O [compound 122, Ac-hLeu-Y-C-hydroVal-G-K-Y-D-V-Y-C-W-F-Thr-dLys(DOTA)-CONH2] (Ac-[hLeu]YC[Val(3-OH)]GKYDVYCWFT[dK](DOTA)-NH2; disulfide 3-11) | 7.00 to 8.00
2 | COc1ccc(C[C@@H]2NC(=O)[C@H](C(C)C)NC(=O)[C@H](CC(=O)O)NC(=O)[C@H](Cc3ccncc3)NC(=O)[C@H](CCCCNC(=O)CN3CCN(CC(=O)O)CCN(CC(=O)O)CCN(CC(=O)O)CC3)NC(=O)CNC(=O)[C@H](C(C)C)NC(=O)[C@@H](NC(=O)[C@H](Cc3ccc(O)cc3)NC(=O)[C@H](CCC(C)C)NC(C)=O)CSSC[C@@H](C(=O)N[C@@H](Cc3c[nH]c4ccc(F)cc34)C(=O)N[C@@H](Cc3ccccc3)C(=O)N3CCC[C@H]3C(N)=O)NC2=O)cc1 [compound 249, Ac-hLeu-Y-C-V-G-Lys(DOTA)-4PyA-D-V-OMeTyr-C-5FW-F-Pro-CONH2] (Ac-[hLeu]YCVGK(DOTA)[4Pal]DVY(Me)C[Trp(5-F)]FP-NH2; disulfide 3-11) | 8.00 to 9.00
3 | CC(=O)N[C@@H](CCC(C)C)C(=O)N[C@@H](Cc1ccc(O)cc1)C(=O)N[C@H]1CSSC[C@@H](C(=O)N[C@@H](Cc2c[nH]c3ccc(F)cc23)C(=O)N[C@@H](Cc2ccccc2)C(=O)N[C@H](C(N)=O)[C@@H](C)O)NC(=O)[C@H](Cc2cccc(CNC(=O)CN3CCN(CC(=O)O)CCN(CC(=O)O)CCN(CC(=O)O)CC3)c2)NC(=O)[C@H](C(C)C)NC(=O)[C@H](CC(=O)O)NC(=O)[C@H](Cc2ccc(O)cc2)NC(=O)[C@H](CCCCN)NC(=O)CNC(=O)[C@H](C(C)C)NC1=O [compound 183, Ac-hLeu-Y-C-V-G-K-Y-D-V-MAF(DOTA)-C-5FW-F-Thr-CONH2] (Ac-[hLeu]YCVGKYDV[Phe(3-CH2NH2)](DOTA)C[Trp(5-F)]FT-NH2; disulfide 3-11) | 8.00 to 9.00
4 | CC(=O)N[C@@H](CCC(C)C)C(=O)N[C@@H](Cc1ccc(O)cc1)C(=O)N[C@H]1CSSC[C@@H](C(=O)N[C@@H](Cc2cccc3ccccc23)C(=O)N[C@@H](Cc2ccccc2)C(=O)N2CCC[C@@]2(C)C(=O)N[C@H](CCCCNC(=O)CN2CCN(CC(=O)O)CCN(CC(=O)O)CCN(CC(=O)O)CC2)C(N)=O)NC(=O)[C@H](Cc2ccc(O)cc2)NC(=O)[C@H](C(C)C)NC(=O)[C@H](CC(=O)O)NC(=O)[C@H](Cc2ccc(O)cc2)NC(=O)[C@H](CCCCN)NC(=O)CNC(=O)[C@H](C(C)(C)C)NC1=O [compound 246, Ac-hLeu-Y-C-Tbg-G-K-Y-D-V-Y-C-1Nal-F-aMePro-dLys(DOTA)-CONH2] (Ac-[hLeu]YC[Tle]GKYDVYC[1Nal]F[αMeP][dK](DOTA)-NH2; disulfide 3-11) | 8.00 to 9.00
5 | CC(=O)N[C@@H](CCC(C)C)C(=O)N[C@@H](Cc1ccc(O)cc1)C(=O)N[C@H]1CSSC[C@@H](C(=O)N[C@@H](Cc2c[nH]c3ccc(F)cc23)C(=O)N[C@@H](Cc2ccccc2)C(=O)N2CCC[C@H]2C(=O)N[C@H](CCCCNC(=O)CN2CCN(CC(=O)O)CCN(CC(=O)O)CCN(CC(=O)O)CC2)C(N)=O)NC(=O)[C@H](Cc2ccc(O)cc2)NC(=O)[C@H](C(C)C)NC(=O)[C@H](CC(=O)O)NC(=O)[C@H](Cc2ccc(O)cc2)NC(=O)[C@H](CCCCN)NC(=O)CNC(=O)[C@H](C(C)(C)C)NC1=O [compound 248, Ac-hLeu-Y-C-Tbg-G-K-Y-D-V-Y-C-5FW-F-Pro-dLys(DOTA)-CONH2] (Ac-[hLeu]YC[Tle]GKYDVYC[Trp(5-F)]FP[dK](DOTA)-NH2; disulfide 3-11) | 8.00 to 9.00
6 | COc1ccc(C[C@@H]2NC(=O)[C@H](C(C)C)NC(=O)[C@H](CC(=O)O)NC(=O)[C@H](Cc3ccncc3)NC(=O)[C@H](CCCCNC(=O)CN3CCN(CC(=O)O)CCN(CC(=O)O)CCN(CC(=O)O)CC3)NC(=O)CNC(=O)[C@H](C(C)C)NC(=O)[C@@H](NC(=O)[C@H](Cc3ccc(O)cc3)NC(=O)[C@H](CCC(C)C)NC(C)=O)CSSC[C@@H](C(=O)N[C@@H](Cc3cccc4ccccc34)C(=O)N[C@@H](Cc3ccccc3)C(=O)N3CCCC3C(N)=O)NC2=O)cc1 (stereo partly drawn) [compound 309, Ac-hLeu-Y-C-V-G-Lys(DOTA)-4PyA-D-V-OMeTyr-C-1Nal-F-Pro-CONH2] (Ac-[hLeu]YCVGK(DOTA)[4Pal]DVY(Me)C[1Nal]F[ξP]-NH2; disulfide 3-11) | 8.00 to 9.00
7 | CC(=O)N[C@@H](CCC(C)C)C(=O)N[C@@](C)(Cc1ccc(O)cc1)C(=O)N[C@H]1CSSC[C@@H](C(=O)N[C@@H](Cc2c[nH]c3ccc(F)cc23)C(=O)N[C@@H](Cc2ccccc2)C(=O)N[C@H](C(=O)N[C@H](CCCCNC(=O)CN2CCN(CC(=O)O)CCN(CC(=O)O)CCN(CC(=O)O)CC2)C(N)=O)[C@@H](C)O)NC(=O)[C@H](Cc2ccc(O)cc2)NC(=O)[C@H](C(C)C)NC(=O)[C@H](CC(=O)O)NC(=O)[C@H](Cc2ccc(O)cc2)NC(=O)[C@H](CCCCN)NC(=O)CNC(=O)[C@H](C(C)C)NC1=O [compound 195, Ac-hLeu-aMeTyr-C-V-G-K-Y-D-V-Y-C-5FW-F-Thr-dLys(DOTA)-CONH2] (Ac-[hLeu][αMeY]CVGKYDVYC[Trp(5-F)]FT[dK](DOTA)-NH2; disulfide 3-11) | 7.00 to 8.00

Same assay, conditions: SPR KD—37° C., 4Ig B7-H3; 37° C. flow cell temperature

Row | SMILES | pKd
8 | CC(=O)N[C@@H](CCC(C)C)C(=O)N[C@@H](Cc1ccc(O)cc1)C(=O)N[C@H]1CSSC[C@@H](C(=O)N[C@@H](Cc2c[nH]c3ccc(F)cc23)C(=O)N[C@@H](Cc2ccccc2)C(=O)N[C@H](C(=O)N[C@H](CCC(=O)O)C(N)=O)C(C)(C)O)NC(=O)[C@H](Cc2ccc(O)cc2)NC(=O)[C@H](C(C)C)NC(=O)[C@H](CC(=O)O)NC(=O)[C@H](CC2CCN(CC(=O)O)CC2)NC(=O)[C@H](CCCCNC(=O)CN2CCN(CC(=O)O)CCN(CC(=O)O)CCN(CC(=O)O)CC2)NC(=O)CNC(=O)[C@H](C(C)(C)C)NC1=O [compound 421, Ac-hLeu-Y-C-Tbg-G-Lys(DOTA)-Pip(CH2COOH)Ala-D-V-Y-C-5FW-F-hydroxyVal-dGlu-CONH2] (Ac-[hLeu]YC[Tle]GK(DOTA)[Ala(1-CH2CO2H-4-piperidyl)]DVYC[Trp(5-F)]F[Val(3-OH)][dE]-NH2; disulfide 3-11) | 8.00 to 9.00
9 | CC(=O)N[C@@H](CCC(C)C)C(=O)N[C@@H](Cc1ccc(O)cc1)C(=O)N[C@H]1CSSC[C@@H](C(=O)N[C@@H](Cc2c[nH]c3ccc(F)cc23)C(=O)N[C@@H](Cc2ccccc2)C(=O)N2CCC[C@H]2C(=O)N[C@H](CCCCNC(=O)CN2CCN(CC(=O)O)CCN(CC(=O)O)CCN(CC(=O)O)CC2)C(=O)O)NC(=O)[C@H](Cc2ccc(O)cc2)NC(=O)[C@H](C(C)C)NC(=O)[C@H](CC(=O)O)NC(=O)[C@H](Cc2ccc(C(=O)O)cc2)NC(=O)[C@H](CC2CCNCC2)NC(=O)CNC(=O)[C@H](C(C)C)NC1=O [compound 313, Ac-hLeu-Y-C-V-G-PipAla-4COOHPhe-D-V-Y-C-5FW-F-Pro-dLys(DOTA)-COOH] (Ac-[hLeu]YCVG[Ala(piperidin-4-yl)][Phe(4-COOH)]DVYC[Trp(5-F)]FP[dK](DOTA)-OH; disulfide 3-11) | > 9.00
10 | CC(=O)N[C@@H](CCC(C)C)C(=O)N[C@@H](Cc1ccc(O)cc1)C(=O)N[C@H]1CSSC[C@@H](C(=O)N[C@@H](Cc2c[nH]c3ccc(F)cc23)C(=O)N[C@H](C(=O)N[C@H](C(=O)N[C@H](CCCCNC(=O)CN2CCN(CC(=O)O)CCN(CC(=O)O)CCN(CC(=O)O)CC2)C(N)=O)C(C)(C)O)[C@@H](C)c2ccccc2)NC(=O)[C@H](Cc2ccc(O)cc2)NC(=O)[C@H](C(C)C)NC(=O)[C@H](CC(=O)O)NC(=O)[C@H](CC2CCOCC2)NC(=O)[C@H](CC2CCNCC2)NC(=O)CNC(=O)[C@H](C(C)(C)C)NC1=O [compound 502, Ac-hLeu-Y-C-Tbg-G-PipAla-ThpA-D-V-Y-C-5FW-[(2S, 3S)beta-Me-Phe]-hydroxyVal-dLys(DOTA)-CONH2] (Ac-[hLeu]YC[Tle]G[Ala(piperidin-4-yl)][Ala(4-THP)]DVYC[Trp(5-F)][X1][Val(3-OH)][dK](DOTA)-NH2; disulfide 3-11) | > 9.00
11 | CC(=O)N[C@@H](CCC(C)C)C(=O)N[C@@H](Cc1ccc(O)cc1)C(=O)N[C@H]1CSSC[C@@H](C(=O)N[C@@H](Cc2c[nH]c3ccc(F)cc23)C(=O)N[C@@H](Cc2ccccc2)C(=O)N[C@H](C(=O)N[C@H](CCCCNC(=O)CN2CCN(CC(=O)O)CCN(CC(=O)O)CCN(CC(=O)O)CC2)C(=O)O)C(C)(C)O)NC(=O)[C@H](Cc2ccc(O)cc2)NC(=O)[C@H](CCO)NC(=O)[C@H](CC(=O)O)NC(=O)[C@H](CC2CCOCC2)NC(=O)[C@H](CCCCN)NC(=O)CNC(=O)[C@H](C(C)(C)C)NC1=O [compound 373, Ac-hLeu-Y-C-Tbg-G-K-ThpA-D-hSer-Y-C-5FW-F-hydroxyVal-dLys(DOTA)-COOH] (Ac-[hLeu]YC[Tle]GK[Ala(4-THP)]D[hSer]YC[Trp(5-F)]F[Val(3-OH)][dK](DOTA)-OH; disulfide 3-11) | 8.00 to 9.00
